From patent US20090247559A1 (Exelixis, Inc., priority 2007, published 2009)
Read-outs that look alike come from different tables or passages of the source.

Experiments:
CDC7 = CDC7 (Homo sapiens, UniProt O00311); assay: CDC7 inhibition, biochemical chemiluminescence assay (Kinase Glo, IC50 determination)
How it was run: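 CDC7 enzyme preincubated with compound 10 min at ambient temperature, then ATP mix in Tris Base added; reaction 90 min at 24-27 °C. Remaining ATP quantified by Kinase Glo luminescence to give IC50.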

[1] = biological target: PIM (PIM-1, PIM-2, and/or PIM-3); assay: PIM-1, PIM-2 and PIM-3 inhibition, biochemical chemiluminescence assays (Kinase Glo, IC50 determination); settings: Table 1 activity class; PIM refers to PIM-1, PIM-2, and/or PIM-3; read-out: PIM IC50 (Activity B)
CK2 = CK2 (Homo sapiens, UniProt P68400); assay: CK2 inhibition, biochemical chemiluminescence holoenzyme assay (Kinase Glo, IC50 determination); settings: Table 1 activity class; symbol given only if active; read-out: CK2 IC50 (Activity C)
How it was run: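 Holoenzyme CK2 assay; compounds pre-incubated with substrate and enzyme, then reacted 150 min at 24-27° C. Remaining ATP measured as luminescence with Kinase Glo, and IC50 derived from the signal.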

[2] = Table 1 activity class, symbol given only if active, read-out: CDC7 IC50 (Activity A)
[3] = compounds in Table 1, read-out: CDC7 IC50 value

CK2, sequence (P68400 whole entry): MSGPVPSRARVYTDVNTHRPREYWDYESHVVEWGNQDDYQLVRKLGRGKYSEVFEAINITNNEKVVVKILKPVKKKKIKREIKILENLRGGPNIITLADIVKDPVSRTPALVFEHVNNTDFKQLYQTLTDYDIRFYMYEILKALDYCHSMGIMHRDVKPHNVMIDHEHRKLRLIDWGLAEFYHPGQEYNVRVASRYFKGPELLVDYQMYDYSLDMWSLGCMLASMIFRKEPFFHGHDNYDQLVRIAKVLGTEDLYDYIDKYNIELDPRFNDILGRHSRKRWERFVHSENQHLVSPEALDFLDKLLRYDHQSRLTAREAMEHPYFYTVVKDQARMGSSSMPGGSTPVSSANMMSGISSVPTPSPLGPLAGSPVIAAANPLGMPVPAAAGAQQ
CK2, sequence (P67870 whole entry partner): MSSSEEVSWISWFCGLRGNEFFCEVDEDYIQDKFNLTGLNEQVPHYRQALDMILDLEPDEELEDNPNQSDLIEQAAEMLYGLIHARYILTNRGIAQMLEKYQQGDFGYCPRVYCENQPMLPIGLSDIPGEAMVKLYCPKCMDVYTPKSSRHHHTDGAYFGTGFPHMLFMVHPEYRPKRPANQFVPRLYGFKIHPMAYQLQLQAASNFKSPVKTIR
CDC7, sequence (O00311 whole entry): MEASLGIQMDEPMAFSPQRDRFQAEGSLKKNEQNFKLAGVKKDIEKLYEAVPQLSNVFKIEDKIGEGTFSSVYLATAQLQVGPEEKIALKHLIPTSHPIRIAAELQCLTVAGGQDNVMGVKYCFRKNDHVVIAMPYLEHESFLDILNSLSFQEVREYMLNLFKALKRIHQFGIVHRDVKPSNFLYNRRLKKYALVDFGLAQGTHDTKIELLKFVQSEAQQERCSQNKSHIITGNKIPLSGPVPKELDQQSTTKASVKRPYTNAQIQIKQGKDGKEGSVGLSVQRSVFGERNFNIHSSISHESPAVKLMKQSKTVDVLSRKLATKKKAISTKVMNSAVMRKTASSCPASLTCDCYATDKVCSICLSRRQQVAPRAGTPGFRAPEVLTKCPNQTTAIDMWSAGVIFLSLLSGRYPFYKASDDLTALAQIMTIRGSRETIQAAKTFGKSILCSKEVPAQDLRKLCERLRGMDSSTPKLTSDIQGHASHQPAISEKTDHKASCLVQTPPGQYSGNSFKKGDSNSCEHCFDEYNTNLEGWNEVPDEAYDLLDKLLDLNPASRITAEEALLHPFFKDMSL
CDC7, sequence (Q9UBU7 whole entry partner): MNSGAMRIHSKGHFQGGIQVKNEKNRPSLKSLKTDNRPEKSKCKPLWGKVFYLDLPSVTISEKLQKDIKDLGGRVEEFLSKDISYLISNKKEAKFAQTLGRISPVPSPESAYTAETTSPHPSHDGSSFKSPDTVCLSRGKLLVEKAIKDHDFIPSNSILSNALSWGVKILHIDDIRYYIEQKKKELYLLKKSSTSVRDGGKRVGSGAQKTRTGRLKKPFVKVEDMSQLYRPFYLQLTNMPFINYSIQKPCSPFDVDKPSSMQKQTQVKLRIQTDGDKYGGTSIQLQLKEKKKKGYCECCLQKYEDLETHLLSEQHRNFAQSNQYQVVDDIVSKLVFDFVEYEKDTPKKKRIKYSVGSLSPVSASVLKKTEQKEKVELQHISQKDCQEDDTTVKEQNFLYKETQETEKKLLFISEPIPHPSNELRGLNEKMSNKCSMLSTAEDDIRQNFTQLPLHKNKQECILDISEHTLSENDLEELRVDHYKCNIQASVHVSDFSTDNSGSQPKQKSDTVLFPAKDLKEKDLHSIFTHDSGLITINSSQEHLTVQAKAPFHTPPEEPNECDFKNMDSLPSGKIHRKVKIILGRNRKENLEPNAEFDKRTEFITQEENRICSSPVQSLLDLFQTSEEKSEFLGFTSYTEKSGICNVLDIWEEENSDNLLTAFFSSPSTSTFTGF

Structure (SMILES)	IC50 (CDC7; [2]) [µM]	IC50 (CDC7; [3]) [µM]	IC50 [1] [µM]	IC50 (CK2) [µM]
CN1CC(c2nc3c(oc4ccc(Br)cc43)c(=O)[nH]2)C1 [Compound 221, 8-Bromo-2-(1-methylazetidin-3-yl)[1]benzofuro[3,2-d]pyrimidin-4(3H)-one]	< 10	< 0.1	< 10	< 10
NC1CCC(c2nc3c(oc4ccc(Br)cc43)c(=O)[nH]2)CC1 (stereo not drawn) [Compound 223, 2-(4-Aminocyclohexyl)-8-bromo[1]benzofuro[3,2-d]pyrimidin-4(3H)-one]	< 10	< 0.1	< 10	< 10
O=C(NCc1ccccc1Cl)C1CCN(Cc2nc3c(oc4ccc(Br)cc43)c(=O)[nH]2)C1 (stereo not drawn) [Compound 224, 1-[(8-bromo-4-oxo-3,4-dihydro[1]benzofuro[3,2-d]pyrimidin-2-yl)methyl]-N-[(2-chlorophenyl)methyl]pyrrolidine-3-carboxamide]	< 10	–	< 10	< 10
NCCNc1nc2c(oc3ccc(Br)cc32)c(=O)[nH]1 [Compound 231, 2-[(2-aminoethyl)amino]-8-bromo[1]benzofuro[3,2-d]pyrimidin-4(3H)-one]	< 10	< 0.1	< 10	< 10
CCC(C)NCc1nc2c(oc3ccc(Br)cc32)c(=O)[nH]1 (stereo not drawn) [Compound 232, 8-bromo-2-{[(1-methylpropyl)amino]methyl}[1]benzofuro[3,2-d]pyrimidin-4(3H)-one]	< 10	< 0.1	< 10	< 10
O=c1[nH]c(CNCc2ccccc2Cl)nc2c1oc1ccc(Br)cc12 [Compound 235, 8-bromo-2-({[(2-chlorophenyl)methyl]amino}methyl)[1]benzofuro[3,2-d]pyrimidin-4(3H)-one]	< 10	–	< 10	< 10
O=c1[nH]c(CN2CCC(O)CC2)nc2c1oc1ccc(Br)cc12 [Compound 242, 8-bromo-2-[(4-hydroxypiperidin-1-yl)methyl][1]benzofuro[3,2-d]pyrimidin-4(3H)-one]	< 10	< 0.1	< 10	< 10
O=C(CCN1CCOCC1)Nc1ccc(-c2nc3c(oc4ccc(Br)cc43)c(=O)[nH]2)c(Cl)c1 [Compound 248, N-[4-(8-bromo-4-oxo-3,4-dihydro[1]benzofuro[3,2-d]pyrimidin-2-yl)-3-chlorophenyl]-3-morpholin-4-ylpropanamide]	< 10	–	< 10	< 10
O=c1[nH]c(CNC2CCC2)nc2c1oc1ccc(Br)cc12 [Compound 252, 8-bromo-2-[(cyclobutylamino)methyl][1]benzofuro[3,2-d]pyrimidin-4(3H)-one]	< 10	< 0.1	< 10	< 10
O=c1[nH]c(CNCCc2c[nH]cn2)nc2c1oc1ccc(Br)cc12 [Compound 259, 8-bromo-2-({[2-(1H-imidazol-4-yl)ethyl]amino}methyl)[1]benzofuro[3,2-d]pyrimidin-4(3H)-one]	< 10	< 0.1	< 10	< 10
O=c1[nH]c(CNCC(O)CO)nc2c1oc1ccc(Br)cc12 (stereo not drawn) [Compound 262, 8-bromo-2-{[(2,3-dihydroxypropyl)amino]methyl}[1]benzofuro[3,2-d]pyrimidin-4(3H)-one]	< 10	< 0.1	< 10	< 10
O=C(NCc1cccc(Cl)c1)C1CCN(Cc2nc3c(oc4ccc(Br)cc43)c(=O)[nH]2)C1 (stereo not drawn) [Compound 264, 1-[(8-bromo-4-oxo-3,4-dihydro[1]benzofuro[3,2-d]pyrimidin-2-yl)methyl]-N-[(3-chlorophenyl)methyl]pyrrolidine-3-carboxamide]	< 10	–	< 10	< 10
CNc1cc(-c2nc3c(oc4ccc(Br)cc43)c(=O)[nH]2)c(Cl)cn1 [Compound 265, 8-bromo-2-[5-chloro-2-(methylamino)pyridin-4-yl][1]benzofuro[3,2-d]pyrimidin-4(3H)-one]	< 10	–	< 10	< 10
CCOC(=O)C1CCN(Cc2nc3c(oc4ccc(Br)cc43)c(=O)[nH]2)C1 (stereo not drawn) [Compound 269, Ethyl 1-[(8-bromo-4-oxo-3,4-dihydro[1]benzofuro[3,2-d]pyrimidin-2-yl)methyl]pyrrolidine-3-carboxylate]	< 10	< 0.1	< 10	< 10
NC(=O)C1CCN(Cc2nc3c(oc4ccc(Br)cc43)c(=O)[nH]2)C1 (stereo not drawn) [Compound 270, 1-[(8-bromo-4-oxo-3,4-dihydro[1]benzofuro[3,2-d]pyrimidin-2-yl)methyl]pyrrolidine-3-carboxamide]	< 10	< 0.1	< 10	< 10
CN1CCCC1c1nc2c(oc3ccc(Br)cc32)c(=O)[nH]1 (stereo not drawn) [Compound 273, 8-Bromo-2-(1-methylpyrrolidin-2-yl)[1]benzofuro[3,2-d]pyrimidin-4(3H)-one]	< 10	< 0.1	< 10	< 10

Now from value to compound:

IC50 (CDC7; [2]) [µM]	IC50 (CDC7; [3]) [µM]	IC50 [1] [µM]	IC50 (CK2) [µM]	Structure (SMILES)
< 10	–	< 10	< 10	O=C(Nc1ccc(-c2nc3c(oc4ccc(Br)cc43)c(=O)[nH]2)c(Cl)c1)c1ccncc1Cl [Compound 275, N-[4-(8-bromo-4-oxo-3,4-dihydro[1]benzofuro[3,2-d]pyrimidin-2-yl)-3-chlorophenyl]-3-chloropyridine-4-carboxamide]
< 10	–	< 10	< 10	O=C(Nc1ccc(-c2nc3c(oc4ccc(Br)cc43)c(=O)[nH]2)c(Cl)c1)c1ccnc(Cl)c1 [Compound 276, N-[4-(8-bromo-4-oxo-3,4-dihydro[1]benzofuro[3,2-d]pyrimidin-2-yl)-3-chlorophenyl]-2-chloropyridine-4-carboxamide]
< 10	< 0.1	< 10	< 10	COCCNCc1nc2c(oc3ccc(Br)cc32)c(=O)[nH]1 [Compound 277, 8-bromo-2-({[2-(methyloxy)ethyl]amino}methyl)[1]benzofuro[3,2-d]pyrimidin-4(3H)-one]
< 10	–	< 10	< 10	CN(C)CCNc1cc(-c2nc3c(oc4ccc(Br)cc43)c(=O)[nH]2)c(Cl)cn1 [Compound 283, 8-bromo-2-(5-chloro-2-{[2-(dimethylamino)ethyl]amino}pyridin-4-yl)[1]benzofuro[3,2-d]pyrimidin-4(3H)-one]
< 10	< 0.1	< 10	< 10	O=c1[nH]c(CN2CCC(CO)C2)nc2c1oc1ccc(Br)cc12 (stereo not drawn) [Compound 287, 8-bromo-2-{[3-(hydroxymethyl)pyrrolidin-1-yl]methyl}[1]benzofuro[3,2-d]pyrimidin-4(3H)-one]
< 10	< 0.1	< 10	< 10	CN1CCC(c2nc3c(oc4ccc(Br)cc43)c(=O)[nH]2)C1 (stereo not drawn) [Compound 289, 8-bromo-2-(1-methylpyrrolidin-3-yl)[1]benzofuro[3,2-d]pyrimidin-4(3H)-one]
< 10	–	< 10	< 10	O=c1[nH]c(C2CCN(Cc3ccncc3)C2)nc2c1oc1ccc(Br)cc12 (stereo not drawn) [Compound 290, 8-bromo-2-[1-(pyridin-4-ylmethyl)pyrrolidin-3-yl][1]benzofuro[3,2-d]pyrimidin-4(3H)-one]
< 10	–	< 10	< 10	Cc1ccc(C(=O)Nc2ccc(-c3nc4c(oc5ccc(Br)cc54)c(=O)[nH]3)c(Cl)c2)cn1 [Compound 291, N-[4-(8-bromo-4-oxo-3,4-dihydro[1]benzofuro[3,2-d]pyrimidin-2-yl)-3-chlorophenyl]-6-methylpyridine-3-carboxamide]
< 10	–	< 10	< 10	O=C(Nc1ccc(-c2nc3c(oc4ccc(Br)cc43)c(=O)[nH]2)c(Cl)c1)c1ccccn1 [Compound 293, N-[4-(8-bromo-4-oxo-3,4-dihydro[1]benzofuro[3,2-d]pyrimidin-2-yl)-3-chlorophenyl]pyridine-2-carboxamide]
< 10	–	< 10	< 10	O=C(Nc1ccc(-c2nc3c(oc4ccc(Br)cc43)c(=O)[nH]2)c(Cl)c1)c1cc(Cl)nc(Cl)c1 [Compound 294, N-[4-(8-bromo-4-oxo-3,4-dihydro[1]benzofuro[3,2-d]pyrimidin-2-yl)-3-chlorophenyl]-2,6-dichloropyridine-4-carboxamide]
< 10	–	< 10	< 10	NCc1cccc(-c2nc3c(oc4ccc(Br)cc43)c(=O)[nH]2)c1 [Compound 302, 2-[3-(Aminomethyl)phenyl]-8-bromo[1]benzofuro[3,2-d]pyrimidin-4(3H)-one]
< 10	–	< 10	< 10	O=c1[nH]c(C[C@@H]2CCCNC2)nc2c1oc1ccc(Br)cc12 [Compound 305, 8-bromo-2-[(3S)-piperidin-3-ylmethyl][1]benzofuro[3,2-d]pyrimidin-4(3H)-one]
< 10	< 0.1	< 10	< 10	O=c1[nH]c(CN2CC[C@@H](F)C2)nc2c1oc1ccc(Br)cc12 [Compound 307, 8-bromo-2-{[(3R)-3-fluoropyrrolidin-1-yl]methyl}[1]benzofuro[3,2-d]pyrimidin-4(3H)-one]
